Source: patent US20060234909A1, “Compositions and methods for increasing drug efficiency” (priority 2003, published 2006)
pEC50: −log10 of the molar value.

Legend:
MCF-7 breast carcinoma = assay: Cytotoxicity assay (monolayer), MCF-7; type: cell-based; conditions: MCF7, ML (monolayer); read-out: MCF7 (EC50 Ave) ML;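 also: cells treated 72 h with 6-8 compound doses versus DMSO vehicle controls, EC50 fitted by 4-parameter dose-response curves, averaged across all tests and lots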
[1] = test system: HT-29 colorectal carcinoma; assay: Cytotoxicity assay (monolayer), HT-29; type: cell-based; conditions: HT29, ML (monolayer); read-out: HT29 (EC50 Ave) ML;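 also: monolayer cultures tested in triplicate, compound exposure for three days against DMSO vehicle controls, EC50 fitted from dose-response curves and averaged across all tests and lots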
tubulin = assay: Fluorescence-based tubulin polymerization assay (MPA; enhancement for paclitaxel, inhibition for vinblastine); type: biochemical
From the text: Drug-linker constructs may further be screened using functional assays predictive of biological activity. […] Tubulin assembly or inhibition thereof may be monitored by fluorescence using the CytoDYNAMIX Screen™ 10 kit available from Cytoskeleton (1830 S. Acoma St., Denver, Colo.). […] Emission is monitored at 405 nm with excitation at 360 nm. […] Tubulin assembly or inhibition may also be monitored by light scattering which is approximated by the apparent absorption at 350 nm. For paclitaxel drug conjugates BSA is employed to prevent aggregation and glycerol, which is a tubulin polymerization enhancer, is omitted from the kit to increase the signal to noise ratio.
The assay kit (#BK011) was purchased from Cytoskeleton (Denver, Colo.). The assays were carried out according to the manufacturer's instructions, except that 1 mg/ml BSA (Sigma #A3059) was included in all assays. […] Parent drugs and conjugates were tested at 0.75, 1.5, 3 and 10 micromolar final concentration and results represent a comparison of conjugate and parent drug curves obtained from the linear range of the dose responses.
(±SD) represent the average of all tests carried out for all lots of a given compound.

HUVEC = assay: Cytotoxicity assay (monolayer), HUVEC; type: cell-based; conditions: ML (monolayer), read-out: HUVEC (EC50 Ave) ML
MCF-7 cells = conditions: read-out: MCF7 (EC50 Ave) SA; MCF7, SA (soft agar)
[2] = test system: Normal human foreskin fibroblasts (HFF); conditions: read-out: HFF (EC50 Ave) ML; HFF, ML (monolayer)
HT-29 cells = conditions: read-out: HT29 (EC50 Ave) SA; HT29, SA (soft agar)

CC[C@]1(O)C[C@@H]2CN(CCc3c([nH]c4ccccc34)[C@@](C(=O)OC)(c3cc4c(cc3OC)N(C)[C@H]3[C@@](O)(C(=O)NN)[C@H](O)[C@]5(CC)C=CCN6CC[C@]43[C@@H]65)C2)C1 [Desacetylvinblastine monohydrazine]
pEC50 (MCF-7 breast carcinoma): > 7.70 | pEC50 [1]: > 7.70 | Ave. MPA Act. (tubulin): C (C>80) | pEC50 (HUVEC): > 7.70 | pEC50 (MCF-7 cells): > 7.70 | pEC50 [2]: > 7.70 | pEC50 (HT-29 cells): > 7.70

C=CCOC(=O)O[C@@H](C(=O)O[C@H]1C[C@@]2(O)[C@@H](OC(=O)c3ccccc3)[C@@H]3[C@]4(OC(C)=O)CO[C@@H]4C[C@H](O)[C@@]3(C)C(=O)[C@H](OC(C)=O)C(=C1C)C2(C)C)[C@@H](NC(=O)c1ccccc1)c1ccccc1 [PXL-2′Alloc]
pEC50 (MCF-7 breast carcinoma): > 7.70 | pEC50 [1]: > 7.70 | Ave. MPA Act. (tubulin): A (A<50) | pEC50 (HUVEC): > 7.70 | pEC50 (MCF-7 cells): > 7.70 | pEC50 [2]: > 7.70 | pEC50 (HT-29 cells): > 7.70

CC(=O)O[C@H]1C(=O)[C@]2(C)[C@@H](OC(=O)NCCCCCCN)C[C@H]3OC[C@@]3(OC(C)=O)[C@H]2[C@H](OC(=O)c2ccccc2)[C@]2(O)C[C@H](OC(=O)[C@H](O)[C@@H](NC(=O)c3ccccc3)c3ccccc3)C(C)=C1C2(C)C [PXL-7Ca-ALK(6)-NH2]
pEC50 (MCF-7 breast carcinoma): 6.00 to 7.00 | pEC50 [1]: > 7.70 | Ave. MPA Act. (tubulin): A (A<50) | pEC50 (HUVEC): > 7.70 | pEC50 (MCF-7 cells): > 7.70 | pEC50 [2]: > 7.70 | pEC50 (HT-29 cells): > 7.70

CC(=O)O[C@H]1C(=O)[C@]2(C)[C@@H](OC(=O)CCCCCN)C[C@H]3OC[C@@]3(OC(C)=O)[C@H]2[C@H](OC(=O)c2ccccc2)[C@]2(O)C[C@H](OC(=O)[C@H](O)[C@@H](NC(=O)c3ccccc3)c3ccccc3)C(C)=C1C2(C)C [PXL-7Es-ALK(5)-NH2]
pEC50 (MCF-7 breast carcinoma): 6.00 to 7.00 | pEC50 [1]: 6.00 to 7.00 | Ave. MPA Act. (tubulin): A (A<50) | pEC50 (HUVEC): > 7.70 | pEC50 (MCF-7 cells): > 7.70 | pEC50 [2]: > 7.70 | pEC50 (HT-29 cells): > 7.70

CC(=O)O[C@@]12CO[C@@H]1C[C@H](O)[C@@]1(C)C(=O)[C@H](OC(=O)CCCCCN)C3=C(C)[C@@H](OC(=O)[C@H](O)[C@@H](NC(=O)c4ccccc4)c4ccccc4)C[C@@](O)([C@@H](OC(=O)c4ccccc4)[C@H]21)C3(C)C [PXL-10Es-ALK(5)-NH2]
pEC50 (MCF-7 breast carcinoma): > 7.70 | pEC50 [1]: > 7.70 | Ave. MPA Act. (tubulin): B (B=50-80) | pEC50 (HUVEC): > 7.70 | pEC50 (MCF-7 cells): > 7.70 | pEC50 [2]: > 7.70 | pEC50 (HT-29 cells): > 7.70

CC(=O)O[C@@]12CO[C@@H]1C[C@H](O)[C@@]1(C)C(=O)[C@H](OC(=O)CCCCCCNC(=O)OCc3ccccc3)C3=C(C)[C@@H](OC(=O)[C@H](O)[C@@H](NC(=O)c4ccccc4)c4ccccc4)C[C@@](O)([C@@H](OC(=O)c4ccccc4)[C@H]21)C3(C)C [PXL-10Es-Alk(6)-NH(Z)]
pEC50 (MCF-7 breast carcinoma): > 7.70 | pEC50 [1]: > 7.70 | Ave. MPA Act. (tubulin): A (A<50) | pEC50 (HUVEC): > 7.70 | pEC50 (MCF-7 cells): > 7.70 | pEC50 [2]: > 7.70 | pEC50 (HT-29 cells): > 7.70

CC[C@]1(O)C[C@@H]2CN(CCc3c([nH]c4ccccc34)[C@@](C(=O)OC)(c3cc4c(cc3OC)N(C)[C@H]3[C@@](O)(C(=O)NCCCCCCN)[C@H](O)[C@]5(CC)C=CCN6CC[C@]43[C@@H]65)C2)C1 [VBL-3Am-ALK(6)-NH2]
pEC50 (MCF-7 breast carcinoma): > 7.70 | pEC50 [1]: > 7.70 | Ave. MPA Act. (tubulin): C (C>80) | pEC50 (HUVEC): > 7.70 | pEC50 (MCF-7 cells): > 7.70 | pEC50 [2]: > 7.70 | pEC50 (HT-29 cells): > 7.70

CC[C@]1(O)C[C@@H]2CN(CCc3c([nH]c4ccccc34)[C@@](C(=O)OC)(c3cc4c(cc3OC)N(C)[C@H]3[C@@](O)(C(=O)NCCCCCCNC(=O)OC(C)(C)C)[C@H](O)[C@]5(CC)C=CCN6CC[C@]43[C@@H]65)C2)C1 [VBL-3Am-ALK(6)-NH(B)]
pEC50 (MCF-7 breast carcinoma): > 7.70 | pEC50 [1]: > 7.70 | Ave. MPA Act. (tubulin): A (A<50) | pEC50 (HUVEC): > 7.70 | pEC50 (MCF-7 cells): > 7.70 | pEC50 [2]: > 7.70 | pEC50 (HT-29 cells): > 7.70
